Common to all, as to assay type: cell-based
The target of assay [1] is T1, human Nav1.2 (Homo sapiens, UniProt Q99250). As to the kind of experiment: Automated patch-clamp I-V relationship (voltage dependence of activation, Gmax), Nav1.2. How it is done: (§1) The voltage dependence of recombinant Nav channel-mediated currents exposed to PbTx-3 and brevenal was evaluated using current–voltage (I-V) relationships built for Ipeak and Ilate elicited by a standard stimulation protocol (25 ms, −100 to +60 mV, Vh −120 mV, 0.1 Hz).
T1 sequence (Q99250 whole entry): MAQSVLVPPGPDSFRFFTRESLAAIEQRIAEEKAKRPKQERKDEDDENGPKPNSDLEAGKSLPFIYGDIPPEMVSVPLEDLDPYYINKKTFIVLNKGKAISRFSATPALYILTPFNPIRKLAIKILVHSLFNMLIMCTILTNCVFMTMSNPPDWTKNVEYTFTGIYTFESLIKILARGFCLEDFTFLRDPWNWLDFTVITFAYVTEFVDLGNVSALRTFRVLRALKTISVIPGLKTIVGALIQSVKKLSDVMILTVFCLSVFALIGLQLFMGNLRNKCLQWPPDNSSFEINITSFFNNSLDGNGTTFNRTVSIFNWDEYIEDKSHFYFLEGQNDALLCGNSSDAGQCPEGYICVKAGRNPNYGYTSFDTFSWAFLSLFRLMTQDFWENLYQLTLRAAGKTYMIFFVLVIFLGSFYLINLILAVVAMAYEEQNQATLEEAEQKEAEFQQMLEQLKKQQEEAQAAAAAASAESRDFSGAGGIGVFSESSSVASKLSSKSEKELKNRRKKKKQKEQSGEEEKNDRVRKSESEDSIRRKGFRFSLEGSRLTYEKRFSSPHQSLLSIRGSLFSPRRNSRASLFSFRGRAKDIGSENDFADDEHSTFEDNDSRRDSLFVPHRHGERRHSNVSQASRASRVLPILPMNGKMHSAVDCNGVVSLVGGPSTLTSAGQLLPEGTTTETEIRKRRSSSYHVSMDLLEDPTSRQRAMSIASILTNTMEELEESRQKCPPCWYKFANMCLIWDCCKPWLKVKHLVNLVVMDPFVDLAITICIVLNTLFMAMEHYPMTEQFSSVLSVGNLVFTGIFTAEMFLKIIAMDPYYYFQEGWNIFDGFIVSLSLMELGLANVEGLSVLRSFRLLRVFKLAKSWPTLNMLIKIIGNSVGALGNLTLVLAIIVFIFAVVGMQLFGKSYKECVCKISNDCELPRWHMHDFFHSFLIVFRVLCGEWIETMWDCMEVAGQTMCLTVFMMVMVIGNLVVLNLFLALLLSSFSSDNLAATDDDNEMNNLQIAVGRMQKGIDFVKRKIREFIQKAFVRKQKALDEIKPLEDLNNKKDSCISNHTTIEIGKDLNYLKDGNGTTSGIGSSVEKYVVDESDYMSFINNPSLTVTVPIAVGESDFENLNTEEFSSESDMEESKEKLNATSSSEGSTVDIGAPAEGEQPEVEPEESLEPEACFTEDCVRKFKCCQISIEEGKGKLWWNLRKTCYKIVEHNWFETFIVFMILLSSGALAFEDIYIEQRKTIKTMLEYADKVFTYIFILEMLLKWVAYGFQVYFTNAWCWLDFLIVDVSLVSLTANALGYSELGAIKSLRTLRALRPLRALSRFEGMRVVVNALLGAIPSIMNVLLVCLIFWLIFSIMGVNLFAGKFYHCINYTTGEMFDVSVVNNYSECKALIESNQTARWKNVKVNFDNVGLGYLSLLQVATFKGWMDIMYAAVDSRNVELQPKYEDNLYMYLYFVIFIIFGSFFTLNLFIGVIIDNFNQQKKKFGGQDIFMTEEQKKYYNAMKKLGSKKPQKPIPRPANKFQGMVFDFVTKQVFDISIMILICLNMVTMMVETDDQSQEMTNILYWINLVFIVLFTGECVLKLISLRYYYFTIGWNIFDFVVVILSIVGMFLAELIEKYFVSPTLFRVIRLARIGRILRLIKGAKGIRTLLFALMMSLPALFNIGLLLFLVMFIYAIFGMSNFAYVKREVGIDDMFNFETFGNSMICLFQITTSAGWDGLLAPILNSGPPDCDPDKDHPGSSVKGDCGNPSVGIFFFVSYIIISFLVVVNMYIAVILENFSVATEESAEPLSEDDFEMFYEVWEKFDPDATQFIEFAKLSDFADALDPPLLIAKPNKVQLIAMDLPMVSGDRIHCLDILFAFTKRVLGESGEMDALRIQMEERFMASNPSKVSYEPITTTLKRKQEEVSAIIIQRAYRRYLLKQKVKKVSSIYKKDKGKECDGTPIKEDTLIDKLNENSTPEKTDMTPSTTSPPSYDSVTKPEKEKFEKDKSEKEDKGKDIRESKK
(§2) The effects of extracellular exposure to PbTx-3 (PbTx-3o = 1 μM) and brevenal (Brevenalo = 10 μM) on the activation of Nav channels in neuronal and muscle cells were examined under normal intracellular ionic conditions. […] To investigate the possibility of overlapping binding of these compounds within Nav channels, Nav whole-cell currents were recorded using an intracellular solution supplemented with brevenal (Brevenali = 1 μM). After equilibration, extracellular PbTx-3o (1 μM) was applied and its modulatory effects over the current kinetics and voltage dependence of activation were compared.
(§3) Figure 4 and Figure 5 display representative current traces mediated by human recombinant Nav channels in control and upon exposure to PbTx-3 and brevenal. I-V plots from the normalized peak and late (when present) currents amplitudes (Ipeak/Ipeak^max and Ilate/Ipeak^max) were fitted to a Boltzmann function rendering the half-maximal activation potential (V0.5) and normalized macroscopic conductance (Gmax) parameters (see Section 4). The changes in V0.5 (ΔV0.5 = V0.5^Comp − V0.5^Ctr) and relative Gmax (Gmax^Rel = Gmax^Comp/Gmax^Ctr) observed in the presence of PbTx-3 and brevenal and control conditions were then calculated and compared for all assayed conditions.
(§4) Recording solutions: The extracellular solution contained (in mM) 140 NaCl, 5 KCl, 2 CaCl2, 2 MgCl2, 10 glucose, and 10 HEPES (pH 7.4 with NaOH, 298 ± 3 mOsmol/k g). Control intracellular solution (in mM): 60 CsF, 70 CsCl, 10 EGTA, 10 glucose, and 10 HEPES (pH 7.2 with CsOH, 285 ± 3 mOsmol/kg). Intracellular exposure to brevenal (1 μM) was achieved by including it in the control intracellular solution during chip filling.
(§5) Electrophysiology: Automated patch-clamp (APC) recordings were performed in a PatchLiner Octo (Nanion Technologies GmbH, Munich, Germany) equipped with two EPC-10 quadro patch-clamp amplifiers (HEKA Electronik, Lambrecht/Pfalz, Germany). PatchControl HT (Nanion) was used for cell capture, seal formation, and establishment of the whole-cell configuration, whilst voltage was controlled and currents were sampled with PatchMaster (HEKA Electronics). Recordings were performed under the whole-cell configuration using single-hole planar medium resistance NPC-16 chips (Rchip, resistance of ~2.5 MΩ) at room temperature (22–24 °C).
(§6) Peak I–V curves were fitted using:I(V) = (V − Vrev) × Gmax/(1 + exp ((V0.5 − V)/Vslope) where I is the macroscopic current, V is the command potential, Vrev is the reversal potential (mV), Gmax is the maximal conductance, V0.5 is the half-activation potential (mV), and Vslope is the slope factor (mV/e-fold).
In general terms: In patch-clamp work, channel activity is measured electrically.

Assay [2] addresses T1, human Nav1.2. As to the kind of experiment: Automated patch-clamp, concentration-response and inactivation fits, Nav1.2 in HEK293. The following applies: for Nav1.2 yinf: single exponential fit. The method, then:
(§7) Functional modulation of recombinant human voltage-gated sodium (Nav) channels exposed to marine PbTx-3 and brevenal was assessed by automated patch-clamp electrophysiology. Neuronal Nav1.2 (CNS) and Nav1.7 (PNS), in addition to muscle Nav1.4 (skeletal) and Nav1.5 (cardiac) sodium channels, were patch-clamped in mammalian cells. Whole-cell currents mediated by human Nav1.4 and Nav1.7 overexpressed in CHO-K1 cells, as well as human Nav1.2 and Nav1.5 overexpressed in HEK293 cells, were recorded at room temperature. Currents were elicited by 25 ms test pulses to −20 mV from a holding potential (Vh) of −120 mV, delivered for 5 min at 0.1 Hz, after each full-bath solution exchange to allow current amplitude and kinetics to reach a steady state.
(§8) Current traces were scaled to maximal Ipeak and are presented as insets in Figure 2 to underline the effects (or lack thereof) of PbTx-3 and brevenal on the current kinetics of the four Nav isoforms studied. Inactivation time constants (τinact) in control and the presence of PbTx-3 and brevenal were estimated by exponential fits (see Methods) to the current decay between 15% and 85% of the depolarizing pulse. Single exponential fits adequately described τinact for the neuronal and the skeletal muscle Nav isoforms, whereas a double exponential fit was required to approximate open channel inactivation of the cardiac Nav current. Consistent with the enhancement of Ilate observed for Nav1.2, Nav1.4, and Nav1.5 in the presence of PbTx-3, significant concentration-dependent increases in the Yinf asymptote were detected (Tables S1–S3). These were mirrored by brevenal exposure in Nav1.2- and Nav1.4-mediated currents. Nevertheless, the estimated τinacts appeared insensitive to PbTx-3 and brevenal modification, with the notable exception of Nav1.4, for which high concentrations of PbTx-3 and brevenal caused a measurable slowing of the open channel inactivation time constant (Table S2).
as §4
(§9) HEK293 cells heterologously expressing human Nav1.2 (Scottish Biomedical, a kind gift from the Petrous lab, Florey Institute of Neuroscience and Mental Health, Melbourne, VIC Australia) and Nav1.5 (ChanTest Corp., Cleveland, OH, USA) were cultured in DMEM containing 10% v/v FBS and selection antibiotics to enable stable expression as per the manufacturer’s recommendation. CHOK1 expressing Nav1.4 and Nav1.7 (ChanTest) was cultured in DMEM/F12 containing 10% v/v FBS and selection antibiotics supporting stable expression as recommended by the manufacturer. Cells were maintained in a humidified 5% CO2 incubator at 37 °C, grown in T25 flasks to 70–80% confluence, and passaged every 3–4 days using TrypLE Express (Invitrogen). After harvesting with TrypLE, cells were resuspended to 10^5 cells/mL in cold extracellular solution and allowed to recover for 30 min at 4 °C before recording.
as §5
(§10) Cells between passages 6 and 12 were used. […]

The target in assay [3] is T2, human Nav1.5 (Homo sapiens, UniProt Q14524). In words: Automated patch-clamp I-V relationship (voltage dependence of activation, Gmax), Nav1.5. The method, then: as §1, §2, §3, §4, §5, §6
T2 sequence (Q14524 whole entry): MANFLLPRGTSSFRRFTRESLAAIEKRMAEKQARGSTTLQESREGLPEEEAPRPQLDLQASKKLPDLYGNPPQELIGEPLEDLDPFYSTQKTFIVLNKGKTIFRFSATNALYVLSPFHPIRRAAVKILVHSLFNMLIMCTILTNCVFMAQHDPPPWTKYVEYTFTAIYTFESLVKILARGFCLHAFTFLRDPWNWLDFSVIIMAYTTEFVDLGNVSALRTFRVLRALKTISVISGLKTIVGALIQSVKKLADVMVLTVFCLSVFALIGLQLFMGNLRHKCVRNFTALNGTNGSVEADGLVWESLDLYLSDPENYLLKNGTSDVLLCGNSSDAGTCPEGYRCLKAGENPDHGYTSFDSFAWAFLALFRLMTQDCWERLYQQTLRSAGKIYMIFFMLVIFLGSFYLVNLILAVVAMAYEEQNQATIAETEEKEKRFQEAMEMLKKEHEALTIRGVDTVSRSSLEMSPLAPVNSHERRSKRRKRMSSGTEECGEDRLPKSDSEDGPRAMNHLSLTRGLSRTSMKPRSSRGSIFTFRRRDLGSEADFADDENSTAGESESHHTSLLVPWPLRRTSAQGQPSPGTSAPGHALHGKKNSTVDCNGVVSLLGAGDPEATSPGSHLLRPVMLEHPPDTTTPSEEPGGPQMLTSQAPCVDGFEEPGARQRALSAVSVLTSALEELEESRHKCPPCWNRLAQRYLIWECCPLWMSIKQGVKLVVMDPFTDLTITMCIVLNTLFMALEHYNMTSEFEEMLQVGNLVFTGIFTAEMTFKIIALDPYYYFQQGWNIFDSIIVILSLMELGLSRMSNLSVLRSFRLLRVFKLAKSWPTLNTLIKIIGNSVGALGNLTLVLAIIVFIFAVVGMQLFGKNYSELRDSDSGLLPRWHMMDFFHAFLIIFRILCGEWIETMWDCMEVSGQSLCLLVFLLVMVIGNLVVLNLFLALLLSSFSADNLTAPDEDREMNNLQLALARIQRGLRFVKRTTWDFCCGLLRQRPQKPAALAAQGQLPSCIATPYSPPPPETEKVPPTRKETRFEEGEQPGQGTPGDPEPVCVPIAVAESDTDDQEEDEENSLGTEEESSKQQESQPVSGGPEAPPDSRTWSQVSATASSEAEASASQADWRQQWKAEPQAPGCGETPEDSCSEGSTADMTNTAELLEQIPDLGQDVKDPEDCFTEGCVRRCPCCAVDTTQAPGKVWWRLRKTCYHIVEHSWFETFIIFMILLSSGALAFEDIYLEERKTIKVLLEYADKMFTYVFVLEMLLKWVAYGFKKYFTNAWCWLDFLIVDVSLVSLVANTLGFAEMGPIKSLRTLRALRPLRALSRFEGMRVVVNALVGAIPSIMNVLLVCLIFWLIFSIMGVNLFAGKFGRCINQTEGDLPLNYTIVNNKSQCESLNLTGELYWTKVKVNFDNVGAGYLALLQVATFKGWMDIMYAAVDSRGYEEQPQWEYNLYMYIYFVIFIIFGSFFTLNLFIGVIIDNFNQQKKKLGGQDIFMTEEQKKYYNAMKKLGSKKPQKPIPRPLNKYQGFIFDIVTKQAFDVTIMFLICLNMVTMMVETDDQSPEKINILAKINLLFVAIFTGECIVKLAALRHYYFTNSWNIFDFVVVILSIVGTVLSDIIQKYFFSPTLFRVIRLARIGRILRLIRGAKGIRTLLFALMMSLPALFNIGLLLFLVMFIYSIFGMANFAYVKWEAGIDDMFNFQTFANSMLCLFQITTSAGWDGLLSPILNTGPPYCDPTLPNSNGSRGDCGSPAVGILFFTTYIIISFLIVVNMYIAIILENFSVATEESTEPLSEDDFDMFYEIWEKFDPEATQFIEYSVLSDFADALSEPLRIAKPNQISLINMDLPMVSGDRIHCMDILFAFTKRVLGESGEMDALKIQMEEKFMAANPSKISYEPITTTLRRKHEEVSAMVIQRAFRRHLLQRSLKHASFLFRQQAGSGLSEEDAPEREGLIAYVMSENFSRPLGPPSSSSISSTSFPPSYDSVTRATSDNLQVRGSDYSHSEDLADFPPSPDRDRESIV
In assay [4] the target is T2, human Nav1.5. In words: cell-based. The following applies: for EC50: read-out: Nav1.5 Ipeak EC50. How it is done:
as §7, §8, §4, §9, §5, §10

The mark [5] stands for this setting: extracellular brevenal 10 μM, n = 5.
Setting [6] is: test pulse −20 mV, Vh −120 mV, extracellular, n = 5.

The structures appear in SMILES notation. Where “and” joins values, the source holds several entries; their conditions need not be identical. Identical values can stand only once. Like-named read-outs stand apart in the source and are kept apart here.

Consider `C=C(CO)C[C@@H]1C[C@H](O)[C@]2(C)OC3CC4OC5C[C@]6(C)O[C@]7(C)CCC8OC9C[C@]%10(C)OC%11C(C)=CC(=O)OC%11CC%10OC9C[C@@H](C)C8OC7CC6O[C@@]5(C)C/C=C\C4OC3CC2O1` (some centres unmarked) [PbTx-3, Brevetoxin PbTx-3], for which, at human Nav1.2 [1], the “Gmax^Rel of Nav1.2” value came out at 0.9 ± 0.1, the “Nav1.2 Ilate as % of Ipeak” value is ~ 40% and the “ΔV0.5 of Nav1.2 activation” value amounted to 1.5 ± 1.0 mV. For the same compound, at human Nav1.2 [2], the “Nav1.2 Ilate FC^Max (maximal fold change)” value turned out to be 3.0 ± 0.1; the “Nav1.2 τ inact” value was 0.88 ± 0.1 ms and 0.76 ± 0.05 ms and 0.64 ± 0.14 ms. Also, on human Nav1.2 [2] (read-out: Nav1.2 Ilate EC50), the 50% effective concentration (EC50) turned out to be 0.0053 nM. For the same compound, at human Nav1.5 [3], the “Gmax^Rel of Nav1.5” value worked out at 1.2 ± 0.1, the “depolarizing shift in V0.5 of Nav1.5” value came to 8.7 ± 1.2 mV, the “depolarizing shift ΔV0.5 of Nav1.5” value is listed as 10.8 ± 2.0 mV and the “relative Gmax of Nav1.5” value amounted to 0.4 ± 0.04. On human Nav1.5 [4], the “Nav1.5 A1Rel” value was 0.82±0.05 and 0.72±0.01 and 0.71±0.06; the “Nav1.5 A2Rel” value is 0.18±0.05 and 0.28±0.01 and 0.29±0.06; the “Nav1.5 Ilate FC^Max (maximal fold change)” value was 1.8 ± 0.1; the “Nav1.5 Ipeak FC^Max (maximal fold change)” value was 0.2 ± 0.1. For the same compound, on human Nav1.5 [4], the “Nav1.5 τ 1inact” value is 0.46 ± 0.03 ms and 0.48 ± 0.06 ms and 0.45 ± 0.02 ms; the “Nav1.5 τ 2inact” value is 2.42 ± 0.52 ms and 2.67 ± 0.78 ms and 1.48 ± 0.31 ms; the EC50 worked out at 2.2 nM.
With `C=C/C=C\CC[C@H]1O[C@H]2CC[C@@]3(C)O[C@H]4[C@@H](O)C[C@@]5(C)O[C@@H](CC/C=C(C)/C(C)=C/C=O)[C@@H](C)C[C@H]5O[C@@H]4C[C@@H]3O[C@@H]2CC[C@@]1(C)O` [Brevenal], the “Nav1.2 V0.5” value at human Nav1.2 [1] (Ctro:Brevenali, intracellular brevenal 1 μM, n = 4, control −22.6 ± 1.9 mV) is −43.9 ± 2.3 mV. On human Nav1.2 [1] (extracellular brevenal 10 μM), the “decrease in Nav1.2 Gmax” value is ~ 40%. The “Gmax^Rel of Nav1.2” value on human Nav1.2 [1] (setting [5]) was found to be 0.6 ± 0.1. The “ΔV0.5 of Nav1.2 activation (depolarizing shift)” value at human Nav1.2 [1] (setting [5]) was 6.1 ± 1.0 mV. Moreover, at human Nav1.2 [1] (intracellular dialysis with brevenal 1 μM), the “leftward shift in Nav1.2 V0.5 vs control intracellular” value is on record as ~ 20 mV. Further, the “Nav1.2 τ inact” value is 0.75 ± 0.10 ms on human Nav1.2 [2] (10^-5 M, n = 4); 0.65 ± 0.08 ms on human Nav1.2 [2] (10^-6 M, n = 4); 0.74 ± 0.8 ms on human Nav1.2 [2] (10^-9 M, n = 4). For the same compound, the Nav1.2 yinf on human Nav1.2 [2] (10^-5 M, n = 4) is on record as 0.12±0.06; on human Nav1.2 [2] (10^-6 M, n = 4), 0.10±0.07; at human Nav1.2 [2] (10^-9 M, n = 4) it was 0.08±0.04. In addition, the EC50 came out at 18 nM at human Nav1.2 [2] (inhibition of peak current, −20 mV, Vh −120 mV, n = 5, read-out: Nav1.2 Ipeak EC50) and 17 nM at human Nav1.5 [4] (inhibition of peak current, −20 mV, Vh −120 mV, n = 5). For the same compound, the “Nav1.2 Ipeak FC^Max (maximal fold change)” value at human Nav1.2 [2] (setting [6]) is on record as 0.6 ± 0.1. Also, at human Nav1.5 [3] (Brevenalo 10 μM, n = 7), the “ΔV0.5 of Nav1.5 activation” value amounted to 0.1 ± 1.4 mV. The “relative Gmax of Nav1.5” value on human Nav1.5 [3] (brevenal 10 μM extracellular, n = 7) worked out at 0.3 ± 0.1. Moreover, the “Nav1.5 A1Rel” value on human Nav1.5 [4] (10^-5 M, n = 4) worked out at 0.77±0.05; on human Nav1.5 [4] (10^-6 M, n = 4), 0.77±0.07; at human Nav1.5 [4] (10^-9 M, n = 4) it was 0.73±0.07. Further, the “Nav1.5 τ 1inact” value at human Nav1.5 [4] (10^-5 M, n = 4) was 0.44 ± 0.01 ms; on human Nav1.5 [4] (10^-6 M, n = 4), 0.46 ± 0.01 ms; on human Nav1.5 [4] (10^-9 M, n = 4), 0.45 ± 0.01 ms. For the same compound, the “Nav1.5 τ 2inact” value at human Nav1.5 [4] (10^-5 M, n = 4) was found to be 1.79 ± 0.06 ms; at human Nav1.5 [4] (10^-6 M, n = 4), 2.05 ± 0.21 ms; at human Nav1.5 [4] (10^-9 M, n = 4), 1.77 ± 0.34 ms. In addition, the “Nav1.5 Ilate FC^Max (maximal fold change)” value at human Nav1.5 [4] (not significant vs control, −20 mV, Vh −120 mV, n = 5) was found to be 1.3 ± 0.2. Moreover, the “Nav1.5 Ipeak FC^Max (maximal fold change)” value at human Nav1.5 [4] (setting [6]) is on record as 0.4 ± 0.1.

The EC50 is the midpoint of the concentration-response curve.
